Reference: patent publication US12465609B2, “Methods of treating patients suffering from a disease condition or disorder that is associated with an increased glutamate level” (veriNOS operations GmbH, priority 2022, dated 2025)
Blank lines part the entries; values can stand above or below the compound they belong to.

Legend:
[1] = tested on: nitric oxide synthase (NOS) / spinal NR2B-containing NMDA receptors; conditions: rats, cited from earlier work
[2] = tested on: plasma glutamate; conditions: neurosurgical patients, anesthesia; cited from earlier work
[3] = tested on: blood glutamate levels; conditions: rat; cited from earlier work
[4] = tested on: C57 BL/6 mice, controlled cortical impact (CCI) model; assay: Controlled cortical impact (CCI) model in mice, intracranial pressure (ICP); assay type: in vivo; conditions: for therapeutic activity of metabolites of VAS203: mouse, in vivo
Excerpt: The primary objective of this experiment was the characterization of the intracranial pressure (ICP) reduction by VAS3384 in the controlled cortical impact (CCI) model in mice. The secondary objective was characterization of the neuroprotective effect (reduction of the lesion volume) of VAS3384 in the controlled cortical impact model in mice.
• Test compound A • Denomination: VAS 3384 • Active agent: 4-Amino-4-desoxy-7,8-dihydrobiopterin-dihydrochloride, obtained from Schircks Laboratories, Bauma, Switzerland • Detailed composition: VAS 3384 dissolved in sodium phosphate buffer (PBS) pH 7.4 • Formulation method: 15 mg of the test compound (VAS 3384) are dissolved in 500 μl PBS, pH 7.4. The solution is neutralized with 72 μl 1 N NaOH and filled up with 428 μl water (check pH). • Final concentration of active agent: 15 mg/ml • Appearance: yellow, clear solution • Storage (solid test compound): −20° C. • Dose applied: 560 mg/kg or 37.3 ml/kg • Way of administration: intravenous injection/infusion • Negative control • Denomination: sodium phosphate buffer (PBS) • Active agent: none • Detailed composition: Na2HPO4, NaH2PO4, 100 mM pH 7.4 • Formulation method: ready for use • Final concentration of active agent: not applicable • Appearance: colourless, clear solution • Expiration date: 3 months after preparation • Volume applied: 37.3 ml/kg • Way of administration: intravenous injection/infusion Experimental Procedure
The animals (C57 BL/6 mice), under Dormicum/Methidomidin/Fentanyl-narcosis were fixed in a stereo tactical frame and the scalp was opened with a cut along the median. The skull bone
was laid open and disinfected with H2O2. A hole of approx. 1.2 mm diameter was then drilled into the skull (Bregma 0.4-0.4 mm). The ICP-probe was introduced through this hole. The V. jugularis was be laid open and a catheter introduced. This catheter was introduced in the neck subcutaneously and fixed on the cap of the cage with a protective spiral of metal. This setup permitted an infusion in awake animals. The skull was opened above of the right cortex and mechanically traumatized (CCI model). The skullcap was then closed with the removed bone.
Mice 1-9: 10 minutes after the trauma the animals got an intravenous bolus injection of 20 mg/kg VAS 3384 (=1.33 ml/kg) followed by an infusion of 1.5 mg/kg/min (=100 μl/kg/min) VAS 3384 over six hours to maintain the dose. After six hours, after termination of the infusion, and after 24 hours the ICP of the animals was measured. After 24 hours the animals were sacrificed, the brains dissected and the lesion volume determined by Nissl's method.
Mice 10-18: 10 minutes after the trauma the animals received an intravenous bolus injection of 1.33 ml/kg PBS followed by an infusion of 100 μl/kg/min PBS over six hours. After six hours, after the termination of the infusion, and after 24 hours the ICP of the animals was measured.
At the end of the observation period animals were sacrificed by cervical dislocation in deep halothane anaesthesia. The brains were carefully removed, frozen in powdered dry ice, and stored at −20° C. until further use. Ten μm coronal sections were prepared every 500 μm on a cryostat (CryoStar HM 560, Microm, Walldorf, Germany) and stained with cresyl violet. Sections were photographed with a digital camera system. The contusion area, the area of the non-traumatized tissue of the ipsilateral hemisphere, and the area of the contralateral hemisphere were determined on the digitized images with a standard image analysis software (Optimate 6.51, Media Cybernetics, Silver Spring, MD, USA) by an investigator blinded to the treatment of the animals. In order to correct for the swelling of contused tissue, the contusion area was calculated by subtracting the area of the non-traumatized tissue of the ipsilateral hemisphere from the area of the contralateral hemisphere. […]

[5] = Exposure control (pharmacokinetics) in NOSTRA III patients; assay type: in vivo, human; conditions: TBI patients; for mean absolute concentration 12 hours after end of infusion / mean absolute concentration at the end of the infusion: Ronopterin 17 mg/kg infused for 48 hours
Experimental: An exposure control was performed with samples collected after end of infusion and 12 hours after end of infusion.

[6] = target: iNOS (Homo sapiens, UniProt P35228); assay: In vitro iNOS inhibition; assay type: biochemical
[7] = Plasma pharmacokinetics after single rectal administration of VAS203 gel in rabbits; assay type: in vivo
Experimental: In this Example, VAS203 was formulated as a gel at a concentration of 450 mg VAS203/ml for single rectal administration in rabbits. This formulation of VAS203 as a gel (450 mg/ml) was filled in 2 ml syringes pact in foil with an oxygen absorber.
Six rabbits were dosed with 1.5 ml of VAS203 gel (corresponding to a dosage of about 200 mg VAS203/kg body weight). Blood collection was carried out at pre-dose, 10 min, 20 min, 40 min, 1 h, 2 h, 3 h, 4 h, 5 h, 6 h, and 20-26 h after rectal administration. The whole blood samples (ca. 1-2 ml sufficient to obtain approx. 0.3 mL EDTA plasma/animal/sampling time), were collected into pre-cooled EDTA vials. To stabilise the blood samples, 1 mg Dithioerythritol (DTE) was added to approx. 1 mL blood. Within 15 minutes of blood collection the samples were centrifuged at 4° C. for 10 minutes. The plasma was transferred to vials and immediately frozen and stored at −80° C. for analysis.
The plasma concentrations (in μg/L) of VAS203, 7,8-Dihydroaminobiopterin (VAS3384, ABH2, the compound of formula (II) as shown in here) and Aminobiopterin (VAS3382, AB) were measured by liquid chromatography mass spectrometry (LC-MS).

[8] = rabbits, single rectal VAS203 gel, about 200 mg/kg

SMILES: O=[N+]([O-])c1cccc2cn[nH]c12 [7-nitroindazole]
oxaliplatin-induced pain behavior [1]: significantly suppressed

SMILES: FC(F)OC(Cl)C(F)(F)F (stereo not drawn) [Isoflurane]
plasma glutamate [2]: significantly increase

SMILES: COC(=O)[C@@H](N)CCCNC(=N)N[N+](=O)[O-] [L-NAME]
oxaliplatin-induced pain behavior [1]: significantly suppressed

SMILES: N[C@@H](Cc1cc(I)c(Oc2cc(I)c(O)c(I)c2)c(I)c1)C(=O)O [L-thyroxine]
blood glutamate levels [3]: increased

SMILES: C[C@@H](CN1CCC(Cc2ccccc2)CC1)[C@@H](O)c1ccc(O)cc1 [Ro25-6981]
oxaliplatin-increased intensity of NADPH diaphorase staining in the superficial layer of spinal dorsal horn ([1]; intrathecal injection): reversed

elimination 12 hours after end of infusion [5]: 56%
mean absolute concentration 12 hours after end of infusion [5]: 476 ng/mL
mean absolute concentration at the end of the infusion [5]: 1071 ng/mL
IC50 [6]: 12 µM
potency to inhibit the i-NOS in comparison to VAS203 [6]: about ten times less potency
half-life ([7]; rabbit, in vivo, 200 mg/kg): ~1.33 h
SMILES: CC(O)C(O)C1=Nc2c(N)nc(N)nc2NC1 [VAS3384, 4-Amino-(6R,S)-7,8-dihydro-L-biopterin]
ICP after 6 hours ([4]; CCI mice, i.v. infusion of 560 mg/kg over 6 h, mean +/- SD, n=9/group, placebo 14.1+/−1.8, p=0.0005): 10.4+/−1.9
ICP after 24 hours ([4]; CCI mice, i.v. infusion of 560 mg/kg over 6 h, placebo 10.7+/−2.3, non-significant): 10.3+/−1.7
reduction of the increased ICP compared with the placebo group ([4]; infusion of 560 mg/kg for six hours, starting 10 minutes after CCI): significantly reduction of the increased ICP
therapeutic activity of metabolites of VAS203 [4]: still active

mean absolute concentration 12 hours after end of infusion [5]: 37 ng/mL
mean absolute concentration at the end of the infusion [5]: 52 ng/mL
elimination half-life [7, 8]: approximately 4 hours
time to reach plateau of plasma concentration [7, 8]: approx. 50 minutes
SMILES: C[C@H](O)[C@@H](O)c1cnc2nc(N)nc(N)c2n1 [aminobiopterin, Aminobiopterin]
therapeutic activity of metabolites of VAS203 [4]: no therapeutic activity

SMILES: CC(C)c1cccc(C(C)C)c1O [propofol]
plasma glutamate [2]: significantly increase
